Measured values reported in patent US20090042964A1, “AMINO-5-[SUBSTITUTED-4-(DIFLUOROMETHOXY)PHENYL]-5-PHENYLIMIDAZOLONE COMPOUNDS AS BETA-SECRETASE INHIBITORS” (Wyeth, priority 2007, published 2009).
pIC50: −log10 of the molar value.

Target: human BACE1 (Homo sapiens, UniProt P56817)
Experiment: Fluorescent kinetic assay, evaluation of BACE1 binding affinity of test compounds
Format: biochemical
Conditions: 10 nM human BACE1, 25 μM substrate WABC-6, pH 4.5, room temperature; read-out: BACE1 IC50
Description: Concentration is determined by absorbance at 354 nm using an extinction coefficient of 18172 M^-1 cm^-1, the concentration of stock substrate is corrected, and the substrate stock stored in small aliquots in -80° C. […] Determination of Stock Enzyme Concentration: the stock concentration of each enzyme is determined by absorbance at 280 nm using an of 64150 M^-1 cm^-1 for hBACE1 and MuBACE1, 62870 M^-1 cm^-1 for hBACE2 in 6 M Guanidinium Hydrochloride (from Research Organics, Cat. # 5134G-2), pH 6. […] Biochem. 182, 319-326). Dilution and mixing steps: total reaction volume: 100 μL 2× inhibitor dilutions in buffer A (66.7 mM Na-Acetate, pH 4.5, 0.0667% CHAPS) were prepared, 4× enzyme dilution in buffer A (66.7 mM Na-Acetate, pH 4.5, 0.0667% CHAPS) were prepared, 100 μM substrate dilution in 1×PBS was prepared, and 50 μL 2× Inhibitor, 25 μL 100 μM substrate are added to each well of 96-well plate (from DYNEX Technologies, VWR #: 11311-046), immediately followed by 25 μL 4× enzyme (added to the inhibitor and substrate mix), and the fluorescence readings are initiated.

Sequence of human BACE1 (P56817 46-501): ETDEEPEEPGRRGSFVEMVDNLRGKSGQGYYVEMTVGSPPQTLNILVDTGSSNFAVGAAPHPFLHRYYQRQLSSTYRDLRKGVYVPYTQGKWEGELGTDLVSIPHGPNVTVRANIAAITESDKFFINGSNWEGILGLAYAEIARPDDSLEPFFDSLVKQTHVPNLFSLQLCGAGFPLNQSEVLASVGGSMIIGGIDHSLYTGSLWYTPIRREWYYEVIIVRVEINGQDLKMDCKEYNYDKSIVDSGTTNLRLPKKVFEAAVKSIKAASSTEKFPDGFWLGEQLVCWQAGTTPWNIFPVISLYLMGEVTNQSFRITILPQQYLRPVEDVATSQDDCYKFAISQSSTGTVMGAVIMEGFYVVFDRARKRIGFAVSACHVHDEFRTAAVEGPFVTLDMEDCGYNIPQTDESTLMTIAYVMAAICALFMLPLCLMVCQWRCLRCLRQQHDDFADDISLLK

SMILES | pIC50
Cc1cc(C2(c3cccc(/C=C/CCF)c3)N=C(N)N(C)C2=O)ccc1OC(F)F (stereo not drawn) [Example 63, 2-Amino-5-[4-(difluoromethoxy)-3-methylphenyl]-5-[3-((E)-4-fluorobut-1-enyl)phenyl]-3-methyl-3,5-dihydro-4H-imidazol-4-one] | > 7.00
COCC/C=C/c1cccc(C2(c3ccc(OC(F)F)c(C)c3)N=C(N)N(C)C2=O)c1 (stereo not drawn) [Example 64, 2-Amino-5-[4-(difluoromethoxy)-3-methylphenyl]-5-[3-((E)-4-methoxybut-1-enyl)phenyl]-3-methyl-3,5-dihydro-4H-imidazol-4-one] | > 7.00
C/C=C/c1cccc(C2(c3ccc(OC(F)F)c(Cl)c3)N=C(N)N(C)C2=O)c1 (stereo not drawn) [Example 65, 2-Amino-5-[3-chloro-4-(difluoromethoxy)phenyl]-3-methyl-5-[((E)-3-prop-1-enyl)phenyl]-3,5-dihydro-4H-imidazol-4-one] | > 7.00
COC/C=C/c1cccc(C2(c3ccc(OC(F)F)c(Cl)c3)N=C(N)N(C)C2=O)c1 (stereo not drawn) [Example 66, 2-Amino-5-[3-chloro-4-(difluoromethoxy)phenyl]-5-[3-((E)-3-methoxyprop-1-enyl)phenyl]-3-methyl-3,5-dihydro-4H-imidazol-4-one] | > 7.00
COCC/C=C/c1cccc(C2(c3ccc(OC(F)F)c(Cl)c3)N=C(N)N(C)C2=O)c1 (stereo not drawn) [Example 67, 2-Amino-5-[3-chloro-4-(difluoromethoxy)phenyl)-5-[3-((E)-4-methoxybut-1-enyl)phenyl]-3-methyl-3,5-dihydro-4H-imidazol-4-one] | > 7.00
CN1C(=O)C(c2cccc(/C=C/CCF)c2)(c2ccc(OC(F)F)c(Cl)c2)N=C1N (stereo not drawn) [Example 68, 2-Amino-5-[3-chloro-4-(difluoromethoxy)phenyl)-5-[3-((E)-4-fluoro-but-1-enyl)phenyl]-3-methyl-3,5-dihydro-4H-imidazol-4-one] | > 7.00
COCC#Cc1cccc([C@@]2(c3ccc(OC(F)F)c(C)c3)N=C(N)N(C)C2=O)c1 [Example 69, (5S)-2-Amino-4-(4-(difluoromethoxy)-3-methylphenyl)-4-(3-(3-methoxyprop-1-ynyl)phenyl)-1-methyl-1H-imidazol-5(4H)-one] | > 7.00
COCC#Cc1cccc([C@]2(c3ccc(OC(F)F)c(C)c3)N=C(N)N(C)C2=O)c1 [Example 70, (5R)-2-Amino-4-(4-(difluoromethoxy)-3-methylphenyl)-4-(3-(3-methoxyprop-1-ynyl)phenyl)-1-methyl-1H-imidazol-5(4H)-one] | 6.00 to 6.96
Cc1cc(C2(c3ccc(OC(F)F)c(C)c3)N=C(N)N(C)C2=O)ccc1OC(F)F [Example 71, 2-Amino-5,5-bis-[4-(difluoromethoxy)-3-methylphenyl]-3-methyl-3,5-dihydro-4H-imidazol-4-one] | 6.00 to 6.96
CN1C(=O)C(c2ccccc2)(c2ccc(OC(F)F)c(CCF)c2)N=C1N (stereo not drawn) [Example 74, 2-amino-5-[4-(difluoromethoxy)-3-(2-fluoroethyl)phenyl]-3-methyl-5-phenyl-3,5-dihydro-4H-imidazol-4-one] | 6.00 to 6.96
Cc1cccc(C2(c3ccc(OC(F)F)c(C)c3)N=C(N)N(C)C2=O)c1 (stereo not drawn) [Example 77, 2-amino-5-[4-(difluoromethoxy)-3-methylphenyl]-3-methyl-5-(3-methylphenyl)-3,5-dihydro-4H-imidazol-4-one] | 6.00 to 6.96
CCCC#Cc1cccc([C@@]2(c3ccc(OC(F)F)c(C)c3)N=C(N)N(C)C2=O)c1 [Example 78, (5S)-2-amino-5-[4-(difluoromethoxy)-3-methylphenyl]-3-methyl-5-(3-pent-1-yn-1-ylphenyl)-3,5-dihydro-4H-imidazol-4-one] | > 7.00
CCC#Cc1cccc(C2(c3ccc(OC(F)F)c(C)c3)N=C(N)N(C)C2=O)c1 (stereo not drawn) [Example 81, 2-amino-4-(3-(but-1-ynyl)phenyl)-4-(4-(difluoromethoxy)-3-methylphenyl)-1-methyl-1H-imidazol-5(4H)-one] | > 7.00
CCC#Cc1cc(C2(c3ccc(OC(F)F)c(C)c3)N=C(N)N(C)C2=O)ccc1F (stereo not drawn) [Example 82, 2-amino-5-(3-but-1-yn-1-yl-4-fluorophenyl)-5-[4-(difluoromethoxy)-3-methylphenyl]-3-methyl-3,5-dihydro-4H-imidazol-4-one] | > 7.00
CN1C(=O)C(c2ccc(F)c(OCCCF)c2)(c2ccc(OC(F)F)c(C3CC3)c2)N=C1N (stereo not drawn) [Example 85, 2-amino-5-[3-cyclopropyl-4-(difluoromethoxy)phenyl]-5-[4-fluoro-3-(3-fluoropropoxy)phenyl]-3-methyl-3,5-dihydro-4H-imidazol-4-one] | > 7.00
CCCC#Cc1cc(C2(c3ccc(OC(F)F)c(CCF)c3)N=C(N)N(C)C2=O)ccc1F (stereo not drawn) [Example 88, 2-amino-5-[4-(difluoromethoxy)-3-(2-fluoroethyl)phenyl]-5-(4-fluoro-3-pent-1-yn-1-ylphenyl)-3-methyl-3,5-dihydro-4H-imidazol-4-one] | > 7.00
CCC#Cc1cc(C2(c3ccc(OC(F)F)c(CCF)c3)N=C(N)N(C)C2=O)ccc1F (stereo not drawn) [Example 89, 2-amino-5-(3-but-1-yn-1-yl-4-fluorophenyl)-5-[4-(difluoromethoxy)-3-(2-fluoroethyl)phenyl]-3-methyl-3,5-dihydro-4H-imidazol-4-one] | > 7.00
CC(C)CC#Cc1cc(C2(c3ccc(OC(F)F)c(CCF)c3)N=C(N)N(C)C2=O)ccc1F (stereo not drawn) [Example 90, 2-amino-5-[4-(difluoromethoxy)-3-(2-fluoroethyl)phenyl]-5-[4-fluoro-3-(4-methylpent-1-yn-1-yl)phenyl]-3-methyl-3,5-dihydro-4H-imidazol-4-one] | > 7.00
CN1C(=O)C(c2ccc(F)c(C#CCCF)c2)(c2ccc(OC(F)F)c(CCF)c2)N=C1N (stereo not drawn) [Example 91, 2-amino-5-[4-(difluoromethoxy)-3-(2-fluoroethyl)phenyl]-5-[4-fluoro-3-(4-fluorobut-1-yn-1-yl)phenyl]-3-methyl-3,5-dihydro-4H-imidazol-4-one] | > 7.00
CN1C(=O)C(c2ccc(F)c(C#CC3CC3)c2)(c2ccc(OC(F)F)c(CCF)c2)N=C1N (stereo not drawn) [Example 92, 2-amino-5-[3-(cyclopropylethynyl)-4-fluorophenyl]-5-[4-(difluoromethoxy)-3-(2-fluoroethyl)phenyl]-3-methyl-3,5-dihydro-4H-imidazol-4-one] | > 7.00
CN1C(=O)C(c2ccc(F)c(O)c2)(c2ccc(OC(F)F)c(Cl)c2)N=C1N (stereo not drawn) [Example 95, 2-Amino-5-[3-chloro-4-(difluoromethoxy)phenyl]-5-(4-fluoro-3-hydroxyphenyl)-3-methyl-3,5-dihydro-4H-imidazol-4-one] | 6.00 to 6.96
CCOc1cc(C2(c3ccc(OC(F)F)c(Cl)c3)N=C(N)N(C)C2=O)ccc1F (stereo not drawn) [Example 96, 2-Amino-5-[3-chloro-4-(difluoromethoxy)phenyl]-5-(3-ethoxy-4-fluorophenyl)-3-methyl-3,5-dihydro-4H-imidazol-4-one] | > 7.00
CCCOc1cc(C2(c3ccc(OC(F)F)c(Cl)c3)N=C(N)N(C)C2=O)ccc1F (stereo not drawn) [Example 97, 2-Amino-5-[3-chloro-4-(difluoromethoxy)phenyl]-5-(4-fluoro-3-propoxyphenyl)-3-methyl-3,5-dihydro-4H-imidazol-4-one] | > 7.00
CN1C(=O)C(c2ccc(OC(F)F)c(Cl)c2)(c2ccc(F)c(OCCCF)c2)N=C1N (stereo not drawn) [Example 98, 2-Amino-5-[3-chloro-4-(difluoromethoxy)phenyl]-5-[4-fluoro-3-(3-fluoropropoxy)phenyl]-3-methyl-3,5-dihydro-4H-imidazol-4-one] | > 7.00
CN1C(=O)C(c2ccc(OC(F)F)c(Cl)c2)(c2ccc(F)c(OCCF)c2)N=C1N (stereo not drawn) [Example 99, 2-Amino-5-[3-chloro-4-(difluoromethoxy)phenyl]-5-[4-fluoro-3-(2-fluoroethoxy)phenyl]-3-methyl-3,5-dihydro-4H-imidazol-4-one] | > 7.00
CN1C(=O)C(c2ccc(OC(F)F)c(Cl)c2)(c2ccc(F)c(OCC(F)F)c2)N=C1N (stereo not drawn) [Example 100, 2-Amino-5-[3-chloro-4-(difluoromethoxy)phenyl]-5-[3-(2,2-difluoroethoxy)-4-fluorophenyl]-3-methyl-3,5-dihydro-4H-imidazol-4-one] | > 7.00
CCOc1cc(C2(c3ccc(OC(F)F)c(C)c3)N=C(N)N(C)C2=O)ccc1F (stereo not drawn) [Example 101, 2-Amino-5-[4-(difluoromethoxy)-3-methylphenyl]-5-(3-ethoxy-4-fluorophenyl)-3-methyl-3,5-dihydro-4H-imidazol-4-one] | > 7.00
Cc1cc(C2(c3ccc(F)c(OCC4CC4)c3)N=C(N)N(C)C2=O)ccc1OC(F)F (stereo not drawn) [Example 105, 2-Amino-5-[3-(cyclopropylmethoxy)-4-fluorophenyl]-5-[4-(difluoromethoxy)-3-methylphenyl]-3-methyl-3,5-dihydro-4H-imidazol-4-one] | > 7.00
Cc1cc([C@]2(c3ccc(F)c(OCC4CC4)c3)N=C(N)N(C)C2=O)ccc1OC(F)F [Example 106, (5R)-2-Amino-5-[3-(cyclopropylmethoxy)-4-fluorophenyl]-5-[4-(difluoromethoxy)-3-methylphenyl]-3-methyl-3,5-dihydro-4H-imidazol-4-one] | > 7.00
Cc1cc([C@@]2(c3ccc(F)c(OCC4CC4)c3)N=C(N)N(C)C2=O)ccc1OC(F)F [Example 107, (5S)-2-Amino-5-[3-(cyclopropylmethoxy)-4-fluorophenyl]-5-[4-(difluoromethoxy)-3-methylphenyl]-3-methyl-3,5-dihydro-4H-imidazol-4-one] | < 6.00
